Experimental data from patent US20120219506A1, “Catenae: Serosal Cancer Stem Cells” (SLOAN KETTERING INSTITUTE FOR CANCER RESEARCH, priority 2009, published 2012).
Read-outs that look alike come from different tables or passages of the source. Each block holds one compound with its values, some of them ahead of it.

Assays:
catena cells [1] = assay: Morphological effects on catena cells observed under the microscope; type: cell-based, human; conditions: for catena cells observed under the microscope in cultures treated with high concentrations: 100 μM (rapamycin 25 μM, lovastatin acid 50 μM), cells arrested at mitosis, re-entered cell cycle without drug
Protocol: When these cells were harvested and cultured in the absence of drugs, they re-entered the cell cycle.
These spheroids continued to grow in the presence of high concentrations of rapamycin (>50 uM) and retained their spheroid morphology.
The change in the cell-to-cell junctions might also be a resistance mechanism where cells activate signaling pathways by increasing cell-to-cell attachment or more tightly control transport of molecules between cells. […]

Ovcar3-GTL catenae [2] = assay: Ovcar3-GTL catena drug sensitivity (proliferation, alamarBlue, 384-well)
Protocol: Cultures of Ovcar3-GTL catenae were mechanically or enzymatically dissociated to single cells. For mechanical dissociation, catena cultures were pipetted vigorously, an equal volume of M5-FCS media was added to decrease the viscosity, and the cells were pelleted. For enzymatic dissociation, catena cultures were incubated at 5 mg/ml collagenase IV (Invitrogen) for 10 min at 37° C. followed by centrifugation to pellet the cells. Cells were resuspended in M5-FCS to produce homogenous cultures of single cells which were seeded in 50 μL aliquots per well at the indicated cell densities and grown for the indicated times before addition of test compounds or other reagents.
The amount of fluorescence or absorbance is proportional to the number of living cells and corresponds to the cells metabolic activity. […] Absorbance of alamarBlue® is monitored at 570 nm, using 600 nm as a reference wavelength. Larger fluorescence emission intensity (or absorbance) values correlate to an increase in total metabolic activity from cells.
For these experiments, 25 Ovcar3-GTL catena or 250 Ovcar3-GTL catena cells were seeded per well as described above. […] Five days after adding the test compound, alamarBlue® was added to the cultures and culture absorbance was measured 48 hours later.

catena cells [3] = assay: Exosome release from catena cells (exosome isolation and FACS); type: cell-based, human; conditions: PMA 10 uM
Protocol: To prepare secreted and exosomal fractions from catenae, the catenae were grown in serum-free media with insulin as described in Example 28 for 5 days, until the culture was near confluent. All centrifugations were done at 4° C. to preserve protein integrity. The cells were removed by centrifugation at 300×g for 10 min. The supernatant fraction was further spun down at 2,000×g for 20 minutes and at 10,000×g for 30 min to remove cellular debris. This supernatant was subjected to ultracentrifugation at100,000×g for 2.5 h. The new supernatant fraction, containing the soluble proteins secreted by catenae (i.e., the catena secretome) was concentrated 200-fold by through a 10 kDa molecular weight cutoff filter. The resulting pellet from the ultracentrifugation was washed twice with PBS, with each wash followed by another round of ultracentrifugation under the same conditions, and kept at 4° C. for further analysis. Exosomes were isolated from Ovcar5 and A2780 human ovarian cancer cell lines that were grown as attached mesenchymal monolayers and from two ovarian cancer patient ascites samples using the same methodology. […]
The exosome isolation followed by FACS analysis allows rapid analysis of ovarian cancer stem cell exosomes both quantitatively and qualitatively. […]

Ovcar3-GTL catenae [4] = assay: Catena morphology on basement membrane matrix (Matrigel) coated plates; type: cell-based, human; conditions: for morphology on Matrigel, hyaluronidase-pretreated cells grown with 4-MU and Y27632 / morphology on Matrigel, mechanically-dissociated cells grown with 4-MU and Y27632: 1 mM 4-MU together with 50 μM Y27632, imaged after 4 days
Protocol: Ovcar3-GTL catenae were dissociated to single cells by mechanical dissociation or by hyaluronidase treatment and cultured on basement membrane matrix (Matrigel) coated plates. A similar set of cultures were grown in the presence of 1 mM 4-methylumbelliferone (4-MU) and 50 μM Y27632, the former being an hyaluronan synthase 2 (HAS2) inhibitor and the latter being a Rho-ROCK inhibitor. The cultures were imaged after 4 days.

Ovcar3-GTL catenae [5] = assay: Particle exclusion experiment with red blood cells (glycocalyx visualisation); type: cell-based, human; conditions: brief incubation with hyaluronidase, RBCs overnight
Protocol: To visualize the glycocalyx surrounding a catena, a particle exclusion experiment was conducted using red blood cells (RBCs). Catenae were mechanically dissociated by pipetting or by brief incubation with hyaluronidase as before. RBCs from human peripheral blood were added and the mixture was incubated overnight in culture media. The cells were observed under the light microscope for the presence of a glycocalyx separating catena cells from the RBCs.

[6] = Viscosity of catena culture supernatant after hyaluronidase; conditions: a few drops 10 mg/mL hyaluronidase
Protocol: In contrast, Ovcar3-GTL epithelial cells were 98% positive for CA125 by FACS and secreted 800 units/ml of CA125 into culture media. For the ELISA, cell supernatants were collected by spinning the cultures at 300×g for 5 min to remove cells and assayed by CA125 ELISA using an automated instrument, ADVIA Centaur XP Immunoassay System (Siemens Healthcare Diagnostics Inc.).
Hyaluronan is a glycosaminoglycan found in extracellular matrix and functions to provide microenvironmental cues in a number of biological processes, including tumor development [Toole, 2004]. Supernatants prepared as above were treated with a few drops 10 mg/mL hyaluronidase (Sigma) in deionized water.

catena cells [7] = assay: Growth of catena cells upon disruption of the glycocalyx; type: cell-based, human
Protocol: To investigate the how catena cells grow upon disruption of the glycocalyx, catenae were dissociated to single cells with hyaluronidase treatment and plated in tissue culture treated flasks with or without 10% hyaluronidase enzyme solution (10 mg/ml) to prevent the formation of glycocalyx. In parallel, catenae were dissociated mechanically and plated in the absence of hyaluronidase.

- IC50 (Ovcar3-GTL catenae [2]; Homo sapiens, read-out: IC50 Addition on Day 1): 0.012 nM
Compound: CC(=O)O[C@H]1C(=O)[C@@]2(C)[C@H]([C@H](OC(=O)c3ccccc3)[C@]3(O)C[C@H](OC(=O)[C@H](O)[C@@H](NC(=O)c4ccccc4)c4ccccc4)C(C)=C1C3(C)C)[C@]1(OC(C)=O)CO[C@@H]1C[C@@H]2O [paclitaxel]
- catena cells observed under the microscope in cultures treated with high concentrations (catena cells [1]): live, large single cells

Compound: O=c1[nH]cc(F)c(=O)[nH]1 [5-FU, 5-fluorouracil]
- morphological change of catenae on treatment (catena cells [1]): formation of fused chains
- Increase in Resistance Day 6/Day 1 (Ovcar3-GTL catenae [2]; IC50 day 6 / IC50 day 1): 33 fold

Compound: Cc1ccc2c(c1)C(=O)C1(O)CCN(c3ccccc3)C1=N2 (stereo not shown) [blebbistatin]
- exosome release (catena cells [3]): inhibited exosome release

Compound: CO[C@@]12[C@H](COC(N)=O)C3=C(C(=O)C(C)=C(N)C3=O)N1C[C@@H]1N[C@@H]12 [mitomycin-C]
- Increase in Resistance Day 6/Day 1 (Ovcar3-GTL catenae [2]): 60 fold

Compound: C/C(=C\c1csc(C)n1)[C@@H]1C[C@@H]2O[C@]2(C)CCC[C@H](C)[C@H](O)[C@@H](C)C(=O)C(C)(C)[C@@H](O)CC(=O)O1 [Epo-B, Epothilone B]
- Increase in Resistance Day 6/Day 1 (Ovcar3-GTL catenae [2]; IC50 day 6 / IC50 day 1): 4,000 fold

Compound: CC[C@@]1(O)C(=O)OCc2c1cc1n(c2=O)Cc2cc3c(CN(C)C)c(O)ccc3nc2-1 [topotecan]
- catena cells observed under the microscope in cultures treated with high concentrations (catena cells [1]): live, large single cells
- Increase in Resistance Day 6/Day 1 (Ovcar3-GTL catenae [2]; IC50 day 6 / IC50 day 1): 5,000 fold

Compound: iso-oxazole-fludelone
- catena cells observed under the microscope in cultures treated with high concentrations (catena cells [1]): live, large single cells
- Increase in Resistance Day 6/Day 1 (Ovcar3-GTL catenae [2]; IC50 day 6 / IC50 day 1): 33,333 fold

Compound: C[C@@H](Oc1cc(-c2cnn(C3CCNCC3)c2)cnc1N)c1c(Cl)ccc(F)c1Cl [PF-02341066]
- Increase in Resistance Day 6/Day 1 (Ovcar3-GTL catenae [2]; IC50 day 6 / IC50 day 1): 31 fold

Compound: CC[C@H](C)C(=O)O[C@H]1C[C@@H](C)C=C2C=C[C@H](C)[C@H](CC[C@@H](O)C[C@@H](O)CC(=O)O)[C@H]21 [lovastatin acid]
- catena cells observed under the microscope in cultures treated with high concentrations (catena cells [1]): live, large single cells
- Increase in Resistance Day 6/Day 1 (Ovcar3-GTL catenae [2]; IC50 day 6 / IC50 day 1): 2 fold

Compound: CO[C@H]1C[C@@H]2CC[C@@H](C)[C@@](O)(O2)C(=O)C(=O)N2CCCC[C@H]2C(=O)O[C@H]([C@H](C)C[C@@H]2CC[C@@H](O)[C@H](OC)C2)CC(=O)[C@H](C)/C=C(\C)[C@@H](O)[C@@H](OC)C(=O)[C@H](C)C[C@H](C)/C=C/C=C/C=C/1C [rapamycin]
- Increase in Resistance Day 6/Day 1 (Ovcar3-GTL catenae [2]; IC50 day 6 / IC50 day 1): 2 fold

Compound: C=CCNC1=C2C[C@@H](C)C[C@H](OC)[C@H](O)[C@@H](C)/C=C(\C)[C@H](OC(N)=O)[C@@H](OC)/C=C\C=C(/C)C(=O)NC(=CC1=O)C2=O [17AAG, 17-AAG/Tanespimycin]
- Increase in Resistance Day 6/Day 1 (Ovcar3-GTL catenae [2]; IC50 day 6 / IC50 day 1): 33 fold

Compound: C/C1=C/C[C@@H](/C(C)=C/c2csc(C)n2)OC(=O)C[C@H](O)C(C)(C)C(=O)[C@H](C)[C@@H](O)[C@@H](C)CCC1 [dEpoB]
- Increase in Resistance Day 6/Day 1 (Ovcar3-GTL catenae [2]; IC50 day 6 / IC50 day 1): 250,000 fold

Compound: O=C(CCCCCCC(=O)Nc1ccccc1)NO [SAHA]
- morphological change of catenae on treatment (catena cells [1]): formation of tight spheroids

Compound: C[C@@H](N)[C@H]1CC[C@H](C(=O)Nc2ccncc2)CC1 [Y27632]
- morphology on Matrigel, hyaluronidase-pretreated cells grown with 4-MU and Y27632 (Ovcar3-GTL catenae [4]): the cultures did not become viscous and the attached cells formed filopodial extensions
- morphology on Matrigel, mechanically-dissociated cells grown with 4-MU and Y27632 (Ovcar3-GTL catenae [4]): did not become viscous; rather, the cells attached to the plates and formed filopodial extensions

Compound: CCCCCCCCCCCCCC(=O)O[C@@H]1[C@@H](C)[C@@]2(O)[C@@H](C=C(CO)C[C@]3(O)C(=O)C(C)=C[C@@H]23)[C@@H]2C(C)(C)[C@]12OC(C)=O [phorbol 12-myristate 13-acetate]
- exosome release (catena cells [3]): induced exosomes release

Compound: Cc1cc(=O)oc2cc(O)ccc12 [4-methylumbelliferone]
- morphology on Matrigel, hyaluronidase-pretreated cells grown with 4-MU and Y27632 (Ovcar3-GTL catenae [4]): the cultures did not become viscous and the attached cells formed filopodial extensions
- morphology on Matrigel, mechanically-dissociated cells grown with 4-MU and Y27632 (Ovcar3-GTL catenae [4]): did not become viscous; rather, the cells attached to the plates and formed filopodial extensions

Compound: Nc1ccn([C@@H]2O[C@H](CO)[C@@H](O)[C@@H]2O)c(=O)n1 [Ara-C]
- catena cells observed under the microscope in cultures treated with high concentrations (catena cells [1]): live, large single cells
- Increase in Resistance Day 6/Day 1 (Ovcar3-GTL catenae [2]; IC50 day 6 / IC50 day 1): 2,000 fold

Compound: COc1cc([C@@H]2c3cc4c(cc3[C@@H](O[C@@H]3O[C@@H]5CO[C@@H](C)O[C@H]5[C@H](O)[C@H]3O)[C@H]3COC(=O)[C@H]23)OCO4)cc(OC)c1O [etoposide]
- Increase in Resistance Day 6/Day 1 (Ovcar3-GTL catenae [2]; IC50 day 6 / IC50 day 1): 125 fold

Compound: hyaluronidase
- glycocalyx in particle exclusion experiment (Ovcar3-GTL catenae [5]): completely lacked a glycocalyx
- viscosity of the culture supernatant [6]: rapidly reduced the viscosity of the supernatant
- morphological change of catenae on treatment (catena cells [1]): lose their polarity and form irregular aggregates
- morphology on Matrigel, cells treated with only hyaluronidase (Ovcar3-GTL catenae [4]; imaged after 4 days): attached to extracellular matrix and grew as attached irregular aggregates
- growth of catena cells after brief hyaluronidase treatment, plated without enzyme (catena cells [7]): no longer formed free floating chains but rather proliferated as irregular aggregates in suspension
- growth of catena cells continuously treated with hyaluronidase (catena cells [7]; 10% hyaluronidase enzyme solution (10 mg/ml)): attached to tissue culture plates and formed epithelial and mesenchymal monolayers

Compound: C/C(=C\c1csc(C)n1)[C@@H]1C/C=C(/C(F)(F)F)C/C=C/[C@H](C)[C@H](O)[C@@H](C)C(=O)C(C)(C)[C@@H](O)CC(=O)O1 [fludelone]
- catena cells observed under the microscope in cultures treated with high concentrations (catena cells [1]): live, large single cells

Compound: COc1cccc2c1C(=O)c1c(O)c3c(c(O)c1C2=O)C[C@@](O)(C(C)=O)C[C@@H]3O[C@H]1C[C@H](N)[C@H](O)[C@H](C)O1 [daunarubacin]
- Increase in Resistance Day 6/Day 1 (Ovcar3-GTL catenae [2]; IC50 day 6 / IC50 day 1): 133 fold

Compound: O=c1cc(N2CCOCC2)oc2c(-c3ccccc3)cccc12 [LY294002]
- Increase in Resistance Day 6/Day 1 (Ovcar3-GTL catenae [2]; IC50 day 6 / IC50 day 1): 4 fold

Compound: COc1cccc2c1C(=O)c1c(O)c3c(c(O)c1C2=O)C[C@@](O)(C(=O)CO)C[C@@H]3O[C@H]1C[C@H](N)[C@H](O)[C@H](C)O1 [doxorubicin]
- Increase in Resistance Day 6/Day 1 (Ovcar3-GTL catenae [2]; IC50 day 6 / IC50 day 1): 32 fold

Compound: CC(=O)c1c(C)c2cnc(Nc3ccc(N4CCNCC4)cn3)nc2n(C2CCCC2)c1=O [PD-0332991]
- Increase in Resistance Day 6/Day 1 (Ovcar3-GTL catenae [2]; IC50 day 6 / IC50 day 1): 83 fold
